Source: publication PMC10111164, “Artemis inhibition as a therapeutic strategy for acute lymphoblastic leukemia” (Frontiers in Cell and Developmental Biology, 2023)

Experiments:
[1] = tested on: patient-derived B-ALL cells (BLQ5, LAX56 and LAX7R); assay: Viability of B-ALL cells by annexin V/DAPI flow cytometry, day 3; format: cell-based, human; conditions: all three B-ALL cells (BLQ5, LAX56, LAX7R), 3 days
Experimental: (§1) Lentivirally green fluorescence protein (GFP) labeled patient-derived B-ALL cells (LAX56, BLQ5, LAX7R) or mature B cell lines 3301015 and 5680001 were plated on irradiated murine stromal OP9 cells and treated with four compounds optimized for Artemis inhibition (827171, 827032, 826941, 825226) (provided by Curia Global Inc., as part of the NCI NExT Program). These compounds ranged in KD binding affinity to Artemis from 20 to 150 nM. […] Proliferation was determined by measuring the green fluorescence intensity per image (9 images were captured per well) by Incucyte every 8 h for 3 days. Raw values were normalized to the zero-time DMSO control. On day 3, viability of the treated cells was determined by annexin V/DAPI staining via flow cytometry.
On day three, primary B-ALL cells were collected and used for flow cytometry analysis with PE Annexin V and DAPI to measure % viability (PE Annexin V-/DAPI-). The statistical analysis of viability differences is compared to DMSO control: ns: non-significant; *p < 0.05; **p < 0.001; ***p < 0.0001, one-way ANOVA.

[2] = tested on: Normal mature B cell lines 3301015 and 5680001; assay: Viability of normal mature B cell lines by annexin V/DAPI flow cytometry, day 3; format: cell-based, human; conditions: one or both B-cell lines, 1–20 μM, 3 days
Experimental: Normal mature human B cell lines, immortalized lymphoblastoid cell lines 3301015 and 5680001, were generated using EBV-transformation of peripheral blood from patients with no hematopoietic abnormalities.
as §1
FIGURE 4 Artemis inhibitors and DNA-PK inhibitors effect on viability of normal mature B cell lines. […] On day three, mature B cells were collected and used for flow cytometry analysis with PE Annexin V and DAPI to measure % viability (PE Annexin V-/DAPI-). The % viability (Ann V-/DAPI-) is depicted. […]

[3] = tested on: Primary patient-derived B-ALL cells (BLQ5, LAX56, and LAX7R); assay: Proliferation of GFP-labeled B-ALL cells on OP9 cells (Incucyte green fluorescence); format: cell-based, human
Experimental: as §1
Based on these viability studies, we next tested the compounds for their effect on proliferation. […] Ideally, normal B-cell lines would continue to proliferate upon Artemis inhibition and only B-ALL cell lines would be inhibited due to chromosome breaks. […] Increasing green fluorescence intensity is indicative of proliferation as measured by Incucyte every 8 h. […]
Primary B-ALL cells (BLQ5, LAX56, and LAX7R) were transduced with GFP, and 100,000 cells were plated in 24-well plates seeded with irradiated OP9 cells. […] Green fluorescence intensity was measured by Incucyte every 8 h. […]

[4] = tested on: Mature B cell lines (3301015 and 5680001); assay: Proliferation of GFP-labeled mature B cell lines on OP9 cells (Incucyte green fluorescence); format: cell-based, human
Experimental: as §1
Based on these viability studies, we next tested the compounds for their effect on proliferation. […] Ideally, normal B-cell lines would continue to proliferate upon Artemis inhibition and only B-ALL cell lines would be inhibited due to chromosome breaks. Primary patient-derived B-ALL cells (BLQ5, LAX56, and LAX7R) were transduced with GFP and 100,000 cells were plated in 24-well plates seeded with irradiated OP9 cells. Increasing green fluorescence intensity is indicative of proliferation as measured by Incucyte every 8 h. […] The mature B cell line proliferation is slow enough that it appears relatively flat in the proliferation assays, but the cells do increase in number (Supplementary Figure S2). Compared to B-ALL cells which grow as single cells (Supplementary Figure S3A–F), the mature B-cell lines grow in clusters and the measurement of total intensity per image is a potential caveat and may not capture this growth (Supplementary Figure S3G–J).
Mature B cell lines (3301015 and 5680001) were transduced with GFP, and 100,000 cells were plated in 24-well plates seeded with irradiated OP9 cells. […] Green fluorescence intensity was measured by Incucyte every 8 h. Raw values were normalized to the 0 h DMSO control. The dashed lines indicate the mean of the final time point measurements of the DMSO control for each mature B cell line.

[5] = molecular target: T1, purified full-length human Artemis with DNA-PKcs (Homo sapiens, UniProt Q96SD1); assay: Biochemical Artemis catalytic activity assay (FAM hairpin DNA cleavage, fluorescence)
T1 construct: Artemis activity assay was developed using full length Artemis with DNA-PKcs; made in house
T1 sequence (Q96SD1 whole entry): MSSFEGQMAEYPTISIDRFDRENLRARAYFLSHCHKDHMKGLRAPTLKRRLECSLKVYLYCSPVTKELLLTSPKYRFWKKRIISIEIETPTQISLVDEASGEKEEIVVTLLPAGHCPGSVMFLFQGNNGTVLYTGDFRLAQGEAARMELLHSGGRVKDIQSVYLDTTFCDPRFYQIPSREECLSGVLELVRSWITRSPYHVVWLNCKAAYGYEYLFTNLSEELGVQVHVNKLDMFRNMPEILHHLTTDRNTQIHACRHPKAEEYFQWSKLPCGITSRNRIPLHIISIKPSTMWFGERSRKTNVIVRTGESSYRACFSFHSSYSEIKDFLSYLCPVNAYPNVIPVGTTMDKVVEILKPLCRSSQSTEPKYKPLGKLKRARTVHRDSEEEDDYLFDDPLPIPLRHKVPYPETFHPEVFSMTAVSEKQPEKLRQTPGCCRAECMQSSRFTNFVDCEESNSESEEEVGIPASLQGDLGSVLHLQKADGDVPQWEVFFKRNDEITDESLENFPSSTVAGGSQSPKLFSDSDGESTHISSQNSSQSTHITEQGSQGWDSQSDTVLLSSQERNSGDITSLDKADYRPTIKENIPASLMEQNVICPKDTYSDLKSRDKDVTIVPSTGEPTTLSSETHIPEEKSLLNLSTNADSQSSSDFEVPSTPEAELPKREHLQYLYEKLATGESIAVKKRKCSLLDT
T1 sequence (P78527 whole entry partner): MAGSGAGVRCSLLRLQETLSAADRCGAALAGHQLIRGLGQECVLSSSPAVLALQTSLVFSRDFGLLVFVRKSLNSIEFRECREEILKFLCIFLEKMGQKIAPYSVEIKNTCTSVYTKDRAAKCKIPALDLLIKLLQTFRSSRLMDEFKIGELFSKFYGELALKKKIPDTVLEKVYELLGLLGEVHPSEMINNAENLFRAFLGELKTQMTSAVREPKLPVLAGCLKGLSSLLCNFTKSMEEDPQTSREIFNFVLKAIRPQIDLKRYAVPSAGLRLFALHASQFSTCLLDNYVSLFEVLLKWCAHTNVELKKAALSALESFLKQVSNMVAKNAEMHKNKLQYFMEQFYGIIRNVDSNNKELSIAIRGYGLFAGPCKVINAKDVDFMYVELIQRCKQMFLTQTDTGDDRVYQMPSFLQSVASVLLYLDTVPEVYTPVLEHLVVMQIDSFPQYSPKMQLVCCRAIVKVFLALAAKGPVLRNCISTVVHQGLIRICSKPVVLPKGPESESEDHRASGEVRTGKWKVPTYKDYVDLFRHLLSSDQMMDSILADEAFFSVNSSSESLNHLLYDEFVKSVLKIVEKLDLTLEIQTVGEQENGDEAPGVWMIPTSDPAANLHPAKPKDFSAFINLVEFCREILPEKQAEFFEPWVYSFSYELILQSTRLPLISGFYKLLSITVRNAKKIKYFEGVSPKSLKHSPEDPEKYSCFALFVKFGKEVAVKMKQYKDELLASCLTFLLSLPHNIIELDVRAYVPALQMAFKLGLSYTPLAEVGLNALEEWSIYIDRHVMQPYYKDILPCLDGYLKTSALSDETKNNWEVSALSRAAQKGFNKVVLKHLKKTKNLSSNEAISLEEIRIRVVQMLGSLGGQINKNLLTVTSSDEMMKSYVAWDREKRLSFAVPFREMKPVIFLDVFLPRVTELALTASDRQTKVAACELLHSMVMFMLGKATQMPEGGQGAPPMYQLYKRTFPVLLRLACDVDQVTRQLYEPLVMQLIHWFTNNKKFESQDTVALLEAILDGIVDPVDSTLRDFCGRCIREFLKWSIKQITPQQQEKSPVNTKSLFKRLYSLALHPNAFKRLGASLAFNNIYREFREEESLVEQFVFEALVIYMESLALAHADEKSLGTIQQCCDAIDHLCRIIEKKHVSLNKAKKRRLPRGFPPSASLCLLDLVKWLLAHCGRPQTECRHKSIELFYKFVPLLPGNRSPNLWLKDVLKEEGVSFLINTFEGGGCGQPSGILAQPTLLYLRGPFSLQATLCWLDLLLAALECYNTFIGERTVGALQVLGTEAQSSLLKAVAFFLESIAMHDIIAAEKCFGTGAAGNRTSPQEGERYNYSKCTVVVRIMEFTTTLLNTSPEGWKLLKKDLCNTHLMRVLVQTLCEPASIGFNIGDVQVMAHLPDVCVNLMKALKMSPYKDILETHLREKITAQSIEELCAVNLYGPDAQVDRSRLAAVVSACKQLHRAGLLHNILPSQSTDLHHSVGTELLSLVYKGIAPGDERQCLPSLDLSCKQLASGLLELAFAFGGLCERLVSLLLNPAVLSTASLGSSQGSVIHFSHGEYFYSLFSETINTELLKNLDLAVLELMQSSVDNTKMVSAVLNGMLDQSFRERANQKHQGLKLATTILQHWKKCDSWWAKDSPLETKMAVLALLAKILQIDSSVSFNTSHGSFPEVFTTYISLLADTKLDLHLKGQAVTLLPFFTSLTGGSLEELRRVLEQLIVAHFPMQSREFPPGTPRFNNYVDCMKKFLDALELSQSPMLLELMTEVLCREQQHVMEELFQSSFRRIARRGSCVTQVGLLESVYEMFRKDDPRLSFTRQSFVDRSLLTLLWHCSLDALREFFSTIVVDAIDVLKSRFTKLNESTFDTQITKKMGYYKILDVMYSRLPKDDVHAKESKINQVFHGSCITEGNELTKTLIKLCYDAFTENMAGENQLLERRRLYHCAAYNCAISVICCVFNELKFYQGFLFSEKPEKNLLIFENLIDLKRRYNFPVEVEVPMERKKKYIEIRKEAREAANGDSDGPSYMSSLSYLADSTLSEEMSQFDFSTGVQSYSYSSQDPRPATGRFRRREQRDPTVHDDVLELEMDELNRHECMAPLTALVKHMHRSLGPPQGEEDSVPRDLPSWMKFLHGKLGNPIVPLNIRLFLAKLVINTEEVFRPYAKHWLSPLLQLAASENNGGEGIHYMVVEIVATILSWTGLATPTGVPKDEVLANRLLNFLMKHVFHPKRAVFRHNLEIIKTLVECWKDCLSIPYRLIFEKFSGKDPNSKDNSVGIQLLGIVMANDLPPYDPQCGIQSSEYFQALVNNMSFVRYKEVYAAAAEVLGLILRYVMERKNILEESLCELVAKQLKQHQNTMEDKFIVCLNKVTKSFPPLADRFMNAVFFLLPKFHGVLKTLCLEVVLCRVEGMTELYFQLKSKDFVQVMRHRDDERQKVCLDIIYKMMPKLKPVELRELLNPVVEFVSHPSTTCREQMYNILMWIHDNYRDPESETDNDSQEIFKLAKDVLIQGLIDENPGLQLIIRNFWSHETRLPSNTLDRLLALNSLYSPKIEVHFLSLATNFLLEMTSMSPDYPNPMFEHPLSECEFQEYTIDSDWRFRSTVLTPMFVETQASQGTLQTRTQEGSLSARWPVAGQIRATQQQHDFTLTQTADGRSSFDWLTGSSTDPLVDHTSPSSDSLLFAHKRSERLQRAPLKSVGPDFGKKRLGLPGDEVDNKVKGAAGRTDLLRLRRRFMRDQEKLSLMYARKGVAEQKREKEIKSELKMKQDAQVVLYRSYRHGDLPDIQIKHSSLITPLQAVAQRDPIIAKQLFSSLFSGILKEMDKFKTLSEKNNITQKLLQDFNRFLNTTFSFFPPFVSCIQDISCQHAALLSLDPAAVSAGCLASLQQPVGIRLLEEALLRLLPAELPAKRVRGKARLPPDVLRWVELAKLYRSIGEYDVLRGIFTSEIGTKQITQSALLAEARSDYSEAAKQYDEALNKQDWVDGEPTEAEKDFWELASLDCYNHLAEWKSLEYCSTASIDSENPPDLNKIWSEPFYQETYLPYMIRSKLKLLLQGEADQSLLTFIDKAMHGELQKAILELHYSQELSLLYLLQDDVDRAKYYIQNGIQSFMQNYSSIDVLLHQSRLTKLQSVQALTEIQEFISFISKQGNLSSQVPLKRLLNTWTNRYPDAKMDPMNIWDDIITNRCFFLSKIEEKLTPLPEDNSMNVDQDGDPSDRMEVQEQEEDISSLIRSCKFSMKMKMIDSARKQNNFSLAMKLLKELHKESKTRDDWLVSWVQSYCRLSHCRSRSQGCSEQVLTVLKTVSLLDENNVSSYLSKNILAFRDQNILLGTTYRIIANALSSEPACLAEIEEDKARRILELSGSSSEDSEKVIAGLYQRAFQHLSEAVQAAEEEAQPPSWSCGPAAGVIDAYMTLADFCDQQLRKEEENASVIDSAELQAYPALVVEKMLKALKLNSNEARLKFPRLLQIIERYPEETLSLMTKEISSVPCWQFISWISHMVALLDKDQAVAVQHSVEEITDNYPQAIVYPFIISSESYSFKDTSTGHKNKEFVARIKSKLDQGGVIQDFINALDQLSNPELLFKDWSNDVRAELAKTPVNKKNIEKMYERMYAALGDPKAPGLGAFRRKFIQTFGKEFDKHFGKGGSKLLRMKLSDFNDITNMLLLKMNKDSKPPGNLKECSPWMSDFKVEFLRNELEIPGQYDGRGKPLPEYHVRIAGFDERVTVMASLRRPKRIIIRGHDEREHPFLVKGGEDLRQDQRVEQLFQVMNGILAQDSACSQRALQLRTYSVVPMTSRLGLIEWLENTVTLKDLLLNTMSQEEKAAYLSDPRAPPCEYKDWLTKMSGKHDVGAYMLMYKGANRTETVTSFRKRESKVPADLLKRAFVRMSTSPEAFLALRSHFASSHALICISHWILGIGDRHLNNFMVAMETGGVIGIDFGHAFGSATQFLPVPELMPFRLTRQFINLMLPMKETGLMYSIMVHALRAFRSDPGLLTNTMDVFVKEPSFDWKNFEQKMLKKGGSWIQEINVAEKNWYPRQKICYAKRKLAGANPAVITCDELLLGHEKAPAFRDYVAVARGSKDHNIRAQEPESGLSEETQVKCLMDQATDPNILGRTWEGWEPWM
Experimental: Artemis activity assay was developed using full length Artemis with DNA-PKcs to generate a fluorescent signal from the cleavage of the 5′ 6-FAM modified end of hairpin DNA with a black-hole quencher (3-BHQ) on the 3’ end. The assay buffer used was 25 mM MOPS, pH 7.5, 10 mM MgCl2, 10 mM KCl, 10 μM ATP, 1 mM DTT, 0.05% (w/v) CHAPS with 5 nM FL-Artemis, 5 nM DNA-PKcs, and 200 nM DNA FAM hairpin substrate. The fluorescence signal was monitored kinetically on a Perkin Elmer Envision microplate reader with FITC filters (λ ex = 485 nm, λ em = 520 nm) with 1-min reads for 40 min.
We determined the specificity of the four Artemis inhibiting compounds using a biochemical Artemis activity assay which generates a fluorescent signal from the cleavage of the 5′ 6-FAM modified end of hairpin DNA with a black-hole quencher (3-BHQ) on the 3’ end.
Steps 1, 2, and 3 show the fluorescence assay for cutting of the DNA hairpin substrate by Artems:DNA-Kcs. Artemis activity assay was optimized for development of a fluorescent signal from the cleavage of the 6-FAM modified end of hairpin DNA (to release it from proximity to the BHQ quenching) and monitored kinetically on a Perkin Elmer Envision microplate reader with FITC filters (excitation wavelength = 485 nm, emission wavelength = 520 nm). […]

IC50 ([5]; 5 nM FL-Artemis, 5 nM DNA-PKcs, 200 nM DNA FAM hairpin substrate, 10 μM ATP, 10-point concentration response) [nM]	%Inh at Max ([5]; percent inhibition at maximal tested concentration) [%]	Structure (SMILES)	viability (PE Annexin V-/DAPI-) compared to DMSO controls [1]	viability (PE Annexin V-/DAPI-) [2]	proliferation (normalized green fluorescence intensity) vs DMSO ([3]; B-ALL cell lines, 5 μM and 10 μM)	proliferation of the three B-ALL lines (Discussion summary) ([3]; three B-ALL lines, 827171 at 1, 5, and 10 µM)	proliferation (normalized green fluorescence intensity) vs DMSO ([4]; 3301015, 5 μM and 10 µM)	proliferation (normalized green fluorescence intensity) vs DMSO [4]; 5680001	proliferation (normalized green fluorescence intensity) vs DMSO ([4]; 5680001, 1 or 5 μM)
–	–	Cc1cc2ncnn2cc1Nc1ncc2c(n1)n(C1CCOCC1)c(=O)n2C [AZD7648]	decrease in viability	decrease viability of one or both B-cell lines	inhibited the proliferation	little inhibition	suppressed proliferation	no significant decreases in proliferation	minor increase in proliferation
3	90.2	COc1ccc([C@@H](O)c2cc(-c3ncnc4cc(N5CCOCC5)ccc34)c(F)cc2Cl)nn1 [M3814]	–	–	–	–	–	–	–
